Results reported in patent US20240216421A1, “COMBINATION PRODUCT AND METHODS FOR PREVENTING THE EMERGENCE OF ANTIBIOTIC-RESISTANT BACTERIA UNDER ANTIBIOTIC TREATMENT” (DIOTHERIS, priority 2021, published 2024).
“Also recorded” adds a separate entry of the source.

Legend:
S. aureus ATCC 29213 [1] = assay: Co-culture on fosfomycin-containing blood agar: growth of fosfomycin-resistant mutant colonies; type: cell-based, Staphylococcus aureus; conditions: ≈10^7 CFU S. aureus on 0.2 μm filter, blood agar with 50 μg/mL fosfomycin, no non-pathogenic microorganism
Experimental: (§1) A 5 McFarland suspension of Corynebacterium aurimucosum CIP 102616 was prepared from a 48 h-culture on Columbia 5% sheep blood agar at 35+/−2° C., and 300 μl of this suspension (≈10^7 CFU) were inoculated by swabbing on a 90 mm diameter blood agar plate containing 50 μg/mL of fosfomycin; 300 μl of saline was inoculated as “negative control” (fosfomycin-containing agar plate not inoculated with C. aurimucosum). A 10 McFarland suspension of S. aureus (ATCC 29213 or NCTC 12493) was prepared as described in Example 1, and 20 μl drops of this suspension (≈10^7 CFU) were spread out on a 47-mm diameter, 0.2 μm filter placed on top of the agar plate. Plates were incubated at 35+/−2° C., and the growth of fosfomycin-resistant mutants was determined as described in Example 1. Fosfomycin MIC values of bacteria forming fosfomycin-resistant colonies on “negative-control” plates were determined using the agar dilution method.
(§2) Serial 1/5 dilutions were prepared from a 100 McFarland suspension of C. aurimucosum and 250 μl of each bacterial suspension was inoculated by swabbing on a 90 mm diameter blood agar plate containing 50 μg/mL of fosfomycin, in order to obtain ≈10^9, ≈2×10^8, ≈4×10^7, ≈8×10^6, ≈1.6×10^6, ≈3.2×10^5, ≈6.4×10^4, ≈1.3×10^4, ≈2.5×10^3, ≈5×10^2, ≈10^2, and ≈20 CFU per plate. Materials and methods were otherwise as described in Example 2. […]

S. aureus NCTC 12493 [2] = assay: as above; type: cell-based, Staphylococcus aureus; conditions: ≈10^7 CFU S. aureus on 0.2 μm filter, blood agar with 50 μg/mL fosfomycin, no non-pathogenic microorganism
Experimental: as §1, §2

[3] = test system: S. aureus fosfomycin-resistant mutants; assay: Fosfomycin MIC of bacteria forming colonies on negative-control plates, agar dilution method; type: cell-based, Staphylococcus aureus
Experimental: as §1

Corynebacterium species [4] = conditions: natural resistance; fosfomycin resistance breakpoint >32 μg/mL; cited from earlier work
S. aureus ATCC 29213 [5] = assay: Co-culture on mupirocin-containing blood agar: growth of mupirocin-resistant mutant colonies; type: cell-based, Staphylococcus aureus; conditions: ≈10^9 CFU S. aureus on 0.2 μm filter, blood agar with 8 μg/mL mupirocin, no non-pathogenic microorganism
Experimental: (§3) A 5 McFarland suspension of Corynebacterium aurimucosum CIP 102616 was prepared as described in Example 2, and 300 μl of this suspension (≈10^7 CFU) were inoculated by swabbing on a 90 mm diameter blood agar plate containing 8 μg/mL of mupirocin; 300 μl of saline was inoculated as “negative control” (mupirocin-containing agar plate not inoculated with C. aurimucosum). Materials and methods were otherwise as described in Example 2, except that ≈10^9 CFU of S. aureus (ATCC 29213 or NCTC 12493) were spread out on the 0.2 μm filter placed on top of the agar plate.

S. aureus NCTC 12493 [6] = assay: as above; type: cell-based, Staphylococcus aureus; conditions: ≈10^9 CFU S. aureus on 0.2 μm filter, blood agar with 8 μg/mL mupirocin, no non-pathogenic microorganism
Experimental: as §3

Corynebacterium species [7] = conditions: natural resistance; mupirocin resistance breakpoint >2 μg/mL; cited from earlier work
[8] = test system: S. epidermidis Rif^R mutant; assay: Rifampicin MIC, agar dilution method; type: cell-based; conditions: Staphylococcus epidermidis, rifampicin resistance breakpoint MIC >16 μg/mL
[9] = test system: C. aurimucosum Rif^R mutant; assay: Rifampicin MIC, agar dilution method; type: cell-based; conditions: Corynebacterium aurimucosum, rifampicin resistance breakpoint MIC >16 μg/mL
Experimental: Spontaneous rifampicin-resistant colonies were obtained in one step by plating ≈10^9 CFU of C. aurimucosum CIP 102616 on blood agar plates supplemented with 20 μg/mL of rifampicin. Five clones were re-isolated on rifampicin-containing plates, and one of them was selected (C. aurimucosum CIP 102616 Rif^R mutant).

[10] = test system: S. aureus rifampicin-resistant mutants; assay: Rifampicin MIC of bacteria forming colonies on negative-control plates, agar dilution method; type: cell-based, Staphylococcus aureus
Experimental: A 5 McFarland suspension of CIP 102616 Rif^R was prepared from a 48 h-culture on Columbia 5% sheep blood agar at 35+/−2° C., and 300 μl of this suspension (≈10^7 CFU) was inoculated by swabbing on a 90 mm diameter blood agar plate containing 20 μg/mL of rifampicin; 300 μl of saline was inoculated as “negative control” (rifampicin-containing agar plate not inoculated with CIP 102616 Rif^R). Materials and methods were otherwise as described in Example 2, except that one 40 μl drop (≈10^7 CFU) was spread out on each filter. Rifampicin MIC values of bacteria forming rifampicin-resistant colonies on “negative-control” plates were determined using the agar dilution method.

C[C@@H]1O[C@@H]1P(=O)(O)O [fosfomycin]
fosfomycin-resistant mutant colonies, fosfomycin alone (S. aureus ATCC 29213 [1]): colonies of fosfomycin-resistant mutants were detected; also recorded: Fosfomycin-resistant colonies developed | fosfomycin-resistant mutant colonies, fosfomycin alone (S. aureus NCTC 12493 [2]): colonies of fosfomycin-resistant mutants were detected; also recorded: Fosfomycin-resistant colonies developed | MIC ([3]; Staphylococcus aureus, read-out: fosfomycin MIC values of colonies on negative-control plates): ≥ 32 µg/mL | share of fosfomycin-resistant mutant colonies with MIC of 64 μg/mL or higher ([3]; agar dilution method): ≈ 50% | share of fosfomycin-resistant mutant colonies with MIC of 256 μg/mL or higher ([3]; agar dilution method): ≈ 30% | fosfomycin MIC values (Corynebacterium species [4]): > 256 µg/mL

C/C(=C\C(=O)OCCCCCCCCC(=O)O)C[C@@H]1OC[C@H](C[C@@H]2O[C@H]2[C@@H](C)[C@H](C)O)[C@@H](O)[C@H]1O [mupirocin]
mupirocin-resistant mutant colonies, mupirocin alone (S. aureus ATCC 29213 [5]): Colonies of mupirocin-resistant mutants were detected | mupirocin-resistant mutant colonies, mupirocin alone (S. aureus NCTC 12493 [6]): Colonies of mupirocin-resistant mutants were detected | mupirocin MIC values (Corynebacterium species [7]): > 16 µg/mL

CO[C@H]1/C=C/O[C@@]2(C)Oc3c(C)c(O)c4c(O)c(c(/C=N/N5CCN(C)CC5)c(O)c4c3C2=O)NC(=O)/C(C)=C\C=C\[C@H](C)[C@H](O)[C@@H](C)[C@@H](O)[C@@H](C)[C@H](OC(C)=O)[C@@H]1C [rifampicin]
MIC [8]: > 256 µg/mL | MIC [9]: > 256 µg/mL | MIC ([10]; Staphylococcus aureus, read-out: rifampicin MIC values of colonies on negative-control plates): ≥ 16 µg/mL | share of rifampicin-resistant mutants with MIC of 64 μg/mL or higher ([10]; agar dilution method): 100% | share of rifampicin-resistant mutants with MIC of 128 μg/mL or higher ([10]; agar dilution method): ≈ 75% | share of rifampicin-resistant mutants with MIC of 256 μg/mL or higher ([10]; agar dilution method): ≈ 25%
